Results reported in PMC11152574, “A parameterized two-domain thermodynamic model explains diverse mutational effects on protein allostery” (eLife, 2024).

Target: TetR(B) (Escherichia coli, UniProt P04483)
Assay: GFP reporter induction in E. coli, Bayesian fit of two-domain thermodynamic model
Assay type: cell-based
Details: 37 °C; LB culture; apparent Kd inferred from in vivo induction curve, K of active LBD set to 1 nM; order-of-magnitude model estimate, not a direct binding measurement; unreliable
Experimental: GFP reporter induction in E. coli, Bayesian fit of two-domain thermodynamic model on TetR(B) | apparent dissociation constant of WT TetR to ligand is calculated as […]

TetR(B), sequence (P04483 whole entry, looked up): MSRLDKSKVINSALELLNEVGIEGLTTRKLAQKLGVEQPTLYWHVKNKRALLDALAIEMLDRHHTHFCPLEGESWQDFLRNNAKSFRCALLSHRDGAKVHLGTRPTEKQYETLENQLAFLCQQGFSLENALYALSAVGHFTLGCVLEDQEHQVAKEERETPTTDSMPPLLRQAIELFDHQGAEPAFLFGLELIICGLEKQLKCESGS

Structure (SMILES): Cc1c2c(c(O)c3c(O)cccc13)C(=O)[C@]1(O)C(=O)C(C(N)=O)=C(O)[C@@H](N(C)C)[C@@H]1C2 [anhydrotetracycline]
- K apparent WT: 27.1 nM
